Experimental data taken from patent US20200032271A1, “COMBINATION THERAPY WITH LIPOSOMAL ANTISENSE OLIGONUCLEOTIDES” (Bio-Path Holdings, Inc., priority 2016, published 2020).
Values joined by “and” are separate entries in the source; they are usually repeats but may differ in a detail not shown here. Equal entries are not always repeated. Marks after values point to notes of the source that are not given here. [PEt] = P-ethoxy (ethyl phosphotriester) internucleoside linkage

Experiment: Adverse events in study 2003-0578 (NCI CTCAE grading)
[1] = patient 1, 5 mg/m^2 monotherapy
[2] = patient 10, 5 mg/m^2 monotherapy

BP1001: liposome-incorporated P-ethoxy antisense oligodeoxynucleotide (5′-ATATTTGGCGATGGCTTC-3′, SEQ ID NO: 1) specific to grb2 mRNA, in neutral DOPC liposomes (DNA, all [PEt], methylation of C not given here; incorporated in neutral DOPC liposomes)
Yes ^a: Dose-limiting Toxicity (DLT): Palmar-plantar erythrodysesthesia (hand and foot) syndrome [1]
1^a: Platelet count decreased ≥Grade 3, number of patients (monotherapy 90 mg/m^2 (n = 4))
1: Neoplasms benign, malignant, and unspecified (incl. cysts and polyps) ≥Grade 3, number of patients (monotherapy 60 mg/m^2 (n = 3)) | Patients with AEs ≥Grade 3, number of patients (monotherapy 60 mg/m^2 (n = 3)) | Asthenia ≥Grade 3, number of patients (monotherapy 90 mg/m^2 (n = 4)) | Blood and lymphatic system disorders ≥Grade 3, number of patients (monotherapy 90 mg/m^2 (n = 4)) | Dyspnea ≥Grade 3, number of patients (monotherapy 90 mg/m^2 (n = 4)) | General disorders and administration site conditions ≥Grade 3, number of patients (monotherapy 90 mg/m^2 (n = 4)) | Hypocalcemia ≥Grade 3, number of patients (monotherapy 90 mg/m^2 (n = 4)) | Hypokalemia ≥Grade 3, number of patients (monotherapy 90 mg/m^2 (n = 4)) | Hyponatremia ≥Grade 3, number of patients (monotherapy 90 mg/m^2 (n = 4)) | Investigations ≥Grade 3, number of patients (monotherapy 90 mg/m^2 (n = 4)) | Leukocytosis ≥Grade 3, number of patients (monotherapy 90 mg/m^2 (n = 4)) | Respiratory, thoracic, and mediastinal disorders ≥Grade 3, number of patients (monotherapy 90 mg/m^2 (n = 4)) | Grade: Coagulopathy (related to study drug) [1] | Grade: Confusion [1] | Grade: Diarrhea [1] | Grade: Fever (pyrexia) [1] | Grade: Pruritus [1]
2 and 4: Grade: Mucositis [1]
3: Metabolism and nutritional disorders ≥Grade 3, number of patients (monotherapy 90 mg/m^2 (n = 4)) | Grade: Hypokalemia [1] | Grade: Palmar-plantar erythrodysesthesia (hand and foot) syndrome [1]
0: Blood and lymphatic system disorders ≥Grade 3, number of patients (monotherapy 60 mg/m^2 (n = 3)) | Cardiac disorders ≥Grade 3, number of patients (monotherapy 60 mg/m^2 (n = 3)) | Cataract ≥Grade 3, number of patients (monotherapy 60 mg/m^2 (n = 3)) | Dyspnea ≥Grade 3, number of patients (monotherapy 60 mg/m^2 (n = 3)) | Extremity Lower Edema ≥Grade 3, number of patients (monotherapy 60 mg/m^2 (n = 3)) | Eye disorders ≥Grade 3, number of patients (monotherapy 60 mg/m^2 (n = 3)) | Febrile neutropenia ≥Grade 3, number of patients (monotherapy 60 mg/m^2 (n = 3)) | Gastrointestinal disorders ≥Grade 3, number of patients (monotherapy 60 mg/m^2 (n = 3)) | General disorders and administration site conditions ≥Grade 3, number of patients (monotherapy 60 mg/m^2 (n = 3)) | Hallucinations ≥Grade 3, number of patients (monotherapy 60 mg/m^2 (n = 3)) | Heart failure ≥Grade 3, number of patients (monotherapy 60 mg/m^2 (n = 3)) | Hepatic failure ≥Grade 3, number of patients (monotherapy 60 mg/m^2 (n = 3)) | Hepatobiliary disorders ≥Grade 3, number of patients (monotherapy 60 mg/m^2 (n = 3)) | Hypocalcemia ≥Grade 3, number of patients (monotherapy 60 mg/m^2 (n = 3)) | Hypoglycemia ≥Grade 3, number of patients (monotherapy 60 mg/m^2 (n = 3)) | Hypokalemia ≥Grade 3, number of patients (monotherapy 60 mg/m^2 (n = 3)) | Hyponatremia ≥Grade 3, number of patients (monotherapy 60 mg/m^2 (n = 3)) | Hypotension ≥Grade 3, number of patients (monotherapy 60 mg/m^2 (n = 3)) | Hypovolemia ≥Grade 3, number of patients (monotherapy 60 mg/m^2 (n = 3)) | Hypoxia ≥Grade 3, number of patients (monotherapy 60 mg/m^2 (n = 3)) | Investigations ≥Grade 3, number of patients (monotherapy 60 mg/m^2 (n = 3)) | Leukocytosis ≥Grade 3, number of patients (monotherapy 60 mg/m^2 (n = 3)) | Metabolism and nutritional disorders ≥Grade 3, number of patients (monotherapy 60 mg/m^2 (n = 3)) | Multi-organ failure ≥Grade 3, number of patients (monotherapy 60 mg/m^2 (n = 3)) | Musculoskeletal and connective tissue disorders ≥Grade 3, number of patients (monotherapy 60 mg/m^2 (n = 3)) | Penile Pain ≥Grade 3, number of patients (monotherapy 60 mg/m^2 (n = 3)) | Platelet count decreased ≥Grade 3, number of patients (monotherapy 60 mg/m^2 (n = 3)) | Pneumonia ≥Grade 3, number of patients (monotherapy 60 mg/m^2 (n = 3)) | Psychiatric disorders ≥Grade 3, number of patients (monotherapy 60 mg/m^2 (n = 3)) | Renal and urinary disorders ≥Grade 3, number of patients (monotherapy 60 mg/m^2 (n = 3)) | Reproductive system and breast disorders ≥Grade 3, number of patients (monotherapy 60 mg/m^2 (n = 3)) | Respiratory distress ≥Grade 3, number of patients (monotherapy 60 mg/m^2 (n = 3)) | Respiratory failure ≥Grade 3, number of patients (monotherapy 60 mg/m^2 (n = 3)) | Respiratory, thoracic, and mediastinal disorders ≥Grade 3, number of patients (monotherapy 60 mg/m^2 (n = 3)) | Tumor lysis syndrome ≥Grade 3, number of patients (monotherapy 60 mg/m^2 (n = 3)) | Vascular disorders ≥Grade 3, number of patients (monotherapy 60 mg/m^2 (n = 3)) | Abdominal Pain ≥Grade 3, number of patients (monotherapy 90 mg/m^2 (n = 4)) | Acidosis ≥Grade 3, number of patients (monotherapy 90 mg/m^2 (n = 4)) | Acute kidney injury ≥Grade 3, number of patients (monotherapy 90 mg/m^2 (n = 4)) | Back Pain ≥Grade 3, number of patients (monotherapy 90 mg/m^2 (n = 4)) | Cardiac disorders ≥Grade 3, number of patients (monotherapy 90 mg/m^2 (n = 4)) | Cataract ≥Grade 3, number of patients (monotherapy 90 mg/m^2 (n = 4)) | Extremity Lower Edema ≥Grade 3, number of patients (monotherapy 90 mg/m^2 (n = 4)) | Eye disorders ≥Grade 3, number of patients (monotherapy 90 mg/m^2 (n = 4)) | Febrile neutropenia ≥Grade 3, number of patients (monotherapy 90 mg/m^2 (n = 4)) | Gastrointestinal disorders ≥Grade 3, number of patients (monotherapy 90 mg/m^2 (n = 4)) | Hallucinations ≥Grade 3, number of patients (monotherapy 90 mg/m^2 (n = 4)) | Heart failure ≥Grade 3, number of patients (monotherapy 90 mg/m^2 (n = 4)) | Hepatic failure ≥Grade 3, number of patients (monotherapy 90 mg/m^2 (n = 4)) | Hepatobiliary disorders ≥Grade 3, number of patients (monotherapy 90 mg/m^2 (n = 4)) | Hypoglycemia ≥Grade 3, number of patients (monotherapy 90 mg/m^2 (n = 4)) | Hypotension ≥Grade 3, number of patients (monotherapy 90 mg/m^2 (n = 4)) | Hypovolemia ≥Grade 3, number of patients (monotherapy 90 mg/m^2 (n = 4)) | Hypoxia ≥Grade 3, number of patients (monotherapy 90 mg/m^2 (n = 4)) | Multi-organ failure ≥Grade 3, number of patients (monotherapy 90 mg/m^2 (n = 4)) | Musculoskeletal and connective tissue disorders ≥Grade 3, number of patients (monotherapy 90 mg/m^2 (n = 4)) | Neoplasms benign, malignant, and unspecified (incl. cysts and polyps) ≥Grade 3, number of patients (monotherapy 90 mg/m^2 (n = 4)) | Penile Pain ≥Grade 3, number of patients (monotherapy 90 mg/m^2 (n = 4)) | Psychiatric disorders ≥Grade 3, number of patients (monotherapy 90 mg/m^2 (n = 4)) | Renal and urinary disorders ≥Grade 3, number of patients (monotherapy 90 mg/m^2 (n = 4)) | Reproductive system and breast disorders ≥Grade 3, number of patients (monotherapy 90 mg/m^2 (n = 4)) | Respiratory distress ≥Grade 3, number of patients (monotherapy 90 mg/m^2 (n = 4)) | Respiratory failure ≥Grade 3, number of patients (monotherapy 90 mg/m^2 (n = 4)) | Tumor lysis syndrome ≥Grade 3, number of patients (monotherapy 90 mg/m^2 (n = 4)) | Vascular disorders ≥Grade 3, number of patients (monotherapy 90 mg/m^2 (n = 4))
2: AML progression, number of patients (monotherapy 90 mg/m^2 (n = 4)) | Pneumonia ≥Grade 3, number of patients (monotherapy 90 mg/m^2 (n = 4)) | Grade: Edema (limbs) [1] | Grade: Hyperkalemia [1] | Grade: Nausea [1] | Grade: Pain [1] | Grade: Pain in extremity [1] | Grade: Blood creatinine increased [2]
No and Yes ^a: Dose-limiting Toxicity (DLT): Mucositis [1]
No: Dose-limiting Toxicity (DLT): Coagulopathy [1] | Dose-limiting Toxicity (DLT): Confusion [1] | Dose-limiting Toxicity (DLT): Diarrhea [1] | Dose-limiting Toxicity (DLT): Edema (limbs) [1] | Dose-limiting Toxicity (DLT): Fever (pyrexia) [1] | Dose-limiting Toxicity (DLT): Hyperkalemia [1] | Dose-limiting Toxicity (DLT): Hypocalcemia [1] | Dose-limiting Toxicity (DLT): Hypokalemia [1] | Dose-limiting Toxicity (DLT): Multi-organ failure [1] | Dose-limiting Toxicity (DLT): Nausea [1] | Dose-limiting Toxicity (DLT): Pain [1] | Dose-limiting Toxicity (DLT): Pain in extremity [1] | Dose-limiting Toxicity (DLT): Pruritus [1] | Dose-limiting Toxicity (DLT): Blood creatinine increased [2]
4: Patients with AEs ≥Grade 3, number of patients (monotherapy 90 mg/m^2 (n = 4))
5: Grade: Multi-organ failure [1]
